# Results reported in patent publication US9650339B2, “Inhibitors of histone demethylases” (Gilead Sciences, Inc., priority 2013, dated 2017).
# How the values were obtained:
# KDM2B (FBXL10) = target: T1, KDM2B (FBXL10) (Homo sapiens, UniProt Q8NHM5); assay: Histone lysine demethylase AlphaLISA assay, KDM2B; format: biochemical; conditions: read-out: KDM2B HDME Inhibition IC50
# T1 sequence (Q8NHM5 1-650): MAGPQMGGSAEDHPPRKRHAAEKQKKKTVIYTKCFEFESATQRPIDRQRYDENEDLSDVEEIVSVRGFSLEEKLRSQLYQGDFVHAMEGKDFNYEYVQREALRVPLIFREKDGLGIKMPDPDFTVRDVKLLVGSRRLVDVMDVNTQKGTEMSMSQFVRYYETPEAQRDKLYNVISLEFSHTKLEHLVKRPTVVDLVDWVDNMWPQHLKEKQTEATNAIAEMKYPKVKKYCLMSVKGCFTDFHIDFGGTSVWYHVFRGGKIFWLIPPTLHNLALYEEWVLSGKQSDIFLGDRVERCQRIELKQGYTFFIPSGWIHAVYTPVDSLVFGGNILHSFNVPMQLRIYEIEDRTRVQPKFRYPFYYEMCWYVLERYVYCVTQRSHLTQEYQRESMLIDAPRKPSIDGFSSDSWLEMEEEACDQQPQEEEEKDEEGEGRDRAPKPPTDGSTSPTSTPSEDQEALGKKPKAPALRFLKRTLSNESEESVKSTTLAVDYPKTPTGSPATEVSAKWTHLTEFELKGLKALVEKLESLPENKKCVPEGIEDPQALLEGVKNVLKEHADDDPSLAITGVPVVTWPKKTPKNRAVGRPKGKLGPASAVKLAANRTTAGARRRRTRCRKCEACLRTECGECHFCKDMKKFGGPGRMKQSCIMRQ
# In short: (§1)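 AlphaLISA demethylation readout: enzyme preincubated 10 min, then 10 min with compounds in 3% DMSO buffer, before biotinylated methyl-lysine histone peptide substrate with 25 μM L-Asc and 10 μM α-KG, room temperature. Acceptor beads then streptavidin donor beads added, dark incubation, plates read.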
# KDM4C (JMJD2C) = target: T2, KDM4C (JMJD2C) (Homo sapiens, UniProt Q9H3R0); assay: Histone lysine demethylase AlphaLISA assay, KDM4C; format: biochemical; conditions: read-out: KDM4C HDME Inhibition IC50
# T2 sequence (Q9H3R0 1-349): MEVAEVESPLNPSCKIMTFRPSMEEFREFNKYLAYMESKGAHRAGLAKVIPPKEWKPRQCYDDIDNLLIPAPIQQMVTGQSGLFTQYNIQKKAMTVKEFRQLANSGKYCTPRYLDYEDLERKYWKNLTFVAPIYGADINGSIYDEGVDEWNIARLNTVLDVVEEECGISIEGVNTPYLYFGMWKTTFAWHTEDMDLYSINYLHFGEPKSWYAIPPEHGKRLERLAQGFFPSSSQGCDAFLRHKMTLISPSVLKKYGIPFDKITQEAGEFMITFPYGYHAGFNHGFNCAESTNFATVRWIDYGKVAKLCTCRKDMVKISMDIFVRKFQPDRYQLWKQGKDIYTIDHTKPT
# In short: as §1
Compound,IC50 (KDM2B (FBXL10)) [nM],IC50 (KDM4C (JMJD2C)) [nM]
"CCN(CC)CCCCNCc1cc(CNC(=O)C(F)(F)F)ccn1 [Compound 1, N-{[2-({[4-(diethylamino)butyl]-amino}methyl)pyridin-4-yl]methyl}-2,2,2-trifluoroacetamide]",> 2500,> 2500
"CN(C)CCCNCc1cc(CN)ccn1 [Compound 3, [2-({[3-(dimethylamino)propyl]-amino}methyl)pyridin-4-yl]methanamine]",> 2500,> 2500
"CCN(CCN(C)C)C(=O)CNCc1cc(CN)ccn1 [Compound 4, 2-({[4-(aminomethyl)pyridin-2-yl]methyl}amino)-N-[2-(dimethylamino)ethyl]-N-ethylacetamide]",> 2500,250 to 2500
"CCN(CC)CCCCNCc1cc(CN)ccn1 [Compound 5, [2-({[4-(diethylamino)butyl]-amino}methyl)pyridin-4-yl]methanamine]",> 2500,> 2500
"CCN(CC)CCCCN(Cc1cc(CNC(=O)C(F)(F)F)ccn1)C(=O)C(F)(F)F [Compound 6, N-[4-(diethylamino)butyl]-- 2,2,2-trifluoro-N-({4-[(trifluoroacetamido)-methyl]pyridin-2-yl}methyl)acetamide]",> 2500,> 2500
"NCc1ccnc(CNCCCCN2CCC2)c1 [Compound 7, [2-({[4-(azetidin-1-yl)butyl]amino}methyl)-pyridin-4-yl]-methanamine]",> 2500,> 2500
"CN(C)CCCCCNCc1cc(CN)ccn1 [Compound 8, [2-({[5-(dimethylamino)pentyl]-amino}methyl)pyridin-4-yl]methanamine]",> 2500,> 2500
"COc1ccccc1CN1CCC(NC(=O)CNCc2cc(CN)ccn2)CC1 [Compound 9, 2-({[4-(aminomethyl)pyridin-2-yl]methyl}amino)-N-{1-[(2-methoxyphenyl)methyl]-piperidin-4-yl}acetamide]",> 2500,> 2500
"CN(C)CCCCNCc1cc(CNC2CC2)ccn1 [Compound 10, N-{[2-({[4-(dimethylamino)butyl]-amino}methyl)pyridin-4-yl]methyl}-cyclopropanamine]",> 2500,> 2500
"CC1CCCCN1CCCNCc1cc(CNC2CC2)ccn1 (centres unmarked) [Compound 11, N-{[2-({[3-(2-methylpiperidin-1-yl)propyl]amino}methyl)-pyridin-4-yl]methyl}-cyclopropanamine]",> 2500,> 2500
"CCCNCc1cc(CNC2CC2)ccn1 [Compound 12, N-({2-[(propylamino)methyl]-pyridin-4-yl}methyl)-cyclopropanamine]",> 2500,> 2500
"CN(C)C(=O)CNCc1cc(CNCC#N)ccn1 [Compound 13, 2-{[(4-{[(cyanomethyl)amino]-methyl}pyridin-2-yl)methyl]amino}-N,N-dimethylacetamide]",> 2500,> 2500
"CN(C)C(=O)CNCc1cc(CNCCF)ccn1 [Compound 14, 2-{[(4-{[(2-fluoroethyl)amino]-methyl}pyridin-2-yl)methyl]amino}-N,N-dimethylacetamide]",> 2500,250 to 2500
"CN(C)CCNCc1ccnc(CNCC(=O)N(C)C)c1 [Compound 15, 2-({[4-({[2-(dimethylamino)ethyl]-amino}methyl)pyridin-2-yl]methyl}amino)-N,N-dimethylacetamide]",> 2500,250 to 2500
"c1ccc(CN2CCC[C@H]2CNCc2cc(CNCC3CC3)ccn2)cc1 [Compound 16, {[(2S)-1-benzylpyrrolidin-2-yl]methyl}[(4-{[(cyclopropylmethyl)-amino]methyl}pyridin-2-yl)methyl]amine]",> 2500,> 2500
"CNCc1ccnc(CNCCCN(C)Cc2ccccc2)c1 [Compound 17, benzyl(methyl){3-[({4-[(methylamino)methyl]-pyridin-2-yl)methyl)-amino]propyl}-amine]",> 2500,250 to 2500
